Converted amounts (≈) assume the structure as drawn. Peptide text beside a SMILES is read from it.
Key:
A. baumannii ATCC 19606 = type: cell-based, Acinetobacter baumannii; conditions: ATCC 19606, 20 h
Procedure, shortened: (§1)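 Single colonies were grown overnight (16 h) at 37 °C in LB, diluted 1:100, regrown to OD600 = 0.3–0.5, then exposed to aqueous peptide solutions from 1 to 64 μmol l^−1 by broth microdilution, with plates read at 600 nm.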

S. aureus ATCC 12600 = type: cell-based, Staphylococcus aureus; conditions: ATCC 12600, 20 h
From the text: (§2) The following Gram-negative bacteria were used in our study: A. baumannii ATCC 19606, E. coli ATCC 11775, E. coli AIC221 (E. coli MG1655 phnE_2::FRT), E. coli AIC222 (E. coli MG1655 pmrA53 phnE_2::FRT (colistin resistant)), K. pneumoniae ATCC 13883, P. aeruginosa PAO1 and P. aeruginosa PA14. The following Gram-positive bacteria were also used in our study: S. aureus ATCC 12600, S. aureus ATCC BAA-1556 (methicillin-resistant strain), E. faecalis ATCC 700802 (vancomycin-resistant strain) and E. faecium ATCC 700221 (vancomycin-resistant strain). Bacteria were grown from frozen stocks and plated on Luria–Bertani (LB) or Pseudomonas isolation agar plates (P. aeruginosa strains) and incubated overnight at 37 °C. After the incubation period, a single colony was transferred to 5 ml of LB medium, and cultures were incubated overnight (16 h) at 37 °C. The following day, an inoculum was prepared by diluting the overnight cultures 1:100 in 5 ml of the respective media and incubating them at 37 °C until bacteria reached logarithmic phase (OD600 = 0.3–0.5).
(§3) The in vitro antimicrobial activity of the peptides was assessed by using the broth microdilution assay. […] Aqueous solutions of the peptides were added to the plate at concentrations ranging from 1 to 64 μmol l^−1. […] The optical density of the plates was measured at 600 nm using a spectrophotometer. All assays were done as three biological replicates.

[1] = tested on: S. aureus ATCC BAA-1556 (methicillin-resistant strain); type: cell-based, Staphylococcus aureus; conditions: ATCC BAA-1556, 20 h
From the text: as §2, §3

[2] = tested on: E. faecium ATCC 700221 (vancomycin-resistant strain); type: cell-based, Enterococcus faecium; conditions: ATCC 700221, 20 h
From the text: as §2, §3

HEK293T cells = conditions: 24 h
Procedure, shortened: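 5,000 cells/well seeded a day ahead in DMEM with 10% FBS, then treated with peptides; viability by MTT (0.5 mg/ml, 4 h, 37 °C), formazan in acidic isopropanol read at 570 nm. Concentration causing 50% lysis from non-linear regression; three biological replicates, two technical each.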

[3] = tested on: 11 clinically relevant bacterial pathogens; type: cell-based; conditions: for Active or Inactive: Supplementary Dataset 2, against the 11 pathogens tested
Procedure, shortened: as §1

E. coli AIC221 = type: cell-based, Escherichia coli; conditions: AIC221, 20 h
From the text: as §2, §3

K. pneumoniae ATCC 13883 = type: cell-based, Klebsiella pneumoniae; conditions: ATCC 13883, 20 h
From the text: as §2, §3

P. aeruginosa PA14 = type: cell-based, Pseudomonas aeruginosa; conditions: PA14, 20 h
From the text: as §2, §3

P. aeruginosa PAO1 = type: cell-based, Pseudomonas aeruginosa; conditions: PAO1, 20 h
From the text: as §2, §3

[4] = tested on: E. faecalis ATCC 700802 (vancomycin-resistant strain); type: cell-based, Enterococcus faecalis; conditions: ATCC 700802, 20 h
From the text: as §2
The in vitro antimicrobial activity of the peptides was assessed by using the broth microdilution assay. […] Aqueous solutions of the peptides were added to the plate at concentrations ranging from 1 to 64 μmol l^−1. […] The optical density of the plates was measured at 600 nm using a spectrophotometer. […]

| Compound | Minimal inhibitory concentration, A. baumannii ATCC19606 (A. baumannii ATCC 19606) [µM] | Minimal inhibitory concentration, S. aureus ATCC12600 (S. aureus ATCC 12600) [µM] | Minimal inhibitory concentration, S. aureus ATCC BAA-1556-MRSA [1] [µM] | Minimal inhibitory concentration, E. faecium ATCC700221-VRE [2] [µM] | CC50 (HEK293T cells) [µM] | Active or Inactive [3] | Minimal inhibitory concentration, E. coli AIC221 (E. coli AIC221) [µM] | Minimal inhibitory concentration, K. pneumoniae ATCC133883 (K. pneumoniae ATCC 13883) [µM] | Minimal inhibitory concentration, P. aeruginosa PA14 (P. aeruginosa PA14) [µM] | Minimal inhibitory concentration, P. aeruginosa PAO1 (P. aeruginosa PAO1) [µM] | MIC (lowest MIC value in the antimicrobial activity assays) ([3]; Supplementary Table 17, lowest MIC among the strains tested) [µM] | Minimal inhibitory concentration, E. faecalis ATCC700802-VRE [4] [µM] | TI (therapeutic index) (HEK293T cells) |
| --- | --- | --- | --- | --- | --- | --- | --- | --- | --- | --- | --- | --- | --- |
| CC[C@H](C)[C@H](NC(=O)[C@H](CO)NC(=O)CNC(=O)[C@H](CC(C)C)NC(=O)[C@H](CC(C)C)NC(=O)[C@H](CC(C)C)NC(=O)[C@H](CCCNC(=N)N)NC(=O)[C@H](CCCCN)NC(=O)[C@@H](NC(=O)[C@H](CO)NC(=O)[C@H](CC(N)=O)NC(=O)[C@@H](NC(=O)[C@H](CC(C)C)NC(=O)[C@@H](N)CC(C)C)[C@@H](C)CC)[C@@H](C)CC)C(=O)N[C@@H](CC(C)C)C(=O)O [Arctodutin-1] (H-LLINSIKRLLLGSIL-OH; N-terminus and C-terminus assumed) | 8 (≈ 13.3 µg/mL) | 8 (≈ 13.3 µg/mL) | 8 (≈ 13.3 µg/mL) | 2 (≈ 3.33 µg/mL) | > 128 | Active | – | – | – | – | – | – | – |
| CC(C)C[C@H](NC(=O)[C@H](CC(C)C)NC(=O)[C@@H](NC(=O)[C@H](CCCNC(=N)N)NC(=O)[C@H](C)NC(=O)[C@H](Cc1ccccc1)NC(=O)[C@H](CCCNC(=N)N)NC(=O)[C@H](CO)NC(=O)[C@H](Cc1c[nH]c2ccccc12)NC(=O)[C@H](CCCNC(=N)N)NC(=O)[C@H](CC(C)C)NC(=O)[C@H](CCCCN)NC(=O)[C@H](CC(C)C)NC(=O)[C@@H](N)Cc1ccccc1)C(C)C)C(=O)O [Equusin-1] (H-FLKLRWSRFARVLL-OH; N-terminus and C-terminus assumed) | – | – | 16 (≈ 28.9 µg/mL) | 1 (≈ 1.81 µg/mL) | > 128 | Active | 4 (≈ 7.22 µg/mL) | 16 (≈ 28.9 µg/mL) | 4 (≈ 7.22 µg/mL) | 16 (≈ 28.9 µg/mL) | 1 (≈ 1.81 µg/mL) | – | – |
| CC[C@H](C)[C@H](NC(=O)[C@H](CCCCN)NC(=O)[C@H](CC(C)C)NC(=O)[C@H](CCC(N)=O)NC(=O)[C@H](Cc1ccccc1)NC(=O)[C@@H](NC(=O)[C@@H](NC(=O)[C@H](Cc1ccccc1)NC(=O)[C@H](CC(C)C)NC(=O)[C@@H](NC(=O)[C@@H](N)CC(C)C)[C@@H](C)O)[C@@H](C)CC)[C@@H](C)CC)C(=O)N[C@@H](CO)C(=O)N[C@@H](CCCCN)C(=O)N[C@@H](CC(C)C)C(=O)O [Paleopropin-1] (H-LTLFIIFQLKISKL-OH; N-terminus and C-terminus assumed) | – | – | – | – | > 128 | Active | – | – | – | – | – | 16 (≈ 26.8 µg/mL) | > 4 |
